Experimental data as given in patent publication US20130219529A1, “PROBE FOR A HAIR CELL, AND LABELLING METHOD FOR A HAIR CELL USING THE PROBE FOR A HAIR CELL” (CANON KABUSHIKI KAISHA, priority 2008, published 2013).

How the values were obtained:
[1] = Excitation and fluorescence emission wavelength measured with fluorescence spectrophotometer; format: physicochemical; conditions: aqueous solution, 10 mg/mL DMSO solution diluted 500-fold with purified water
[2] = test system: juvenile neuromast (hair cell) of Zebrafish; assay: Change in staining intensity of neuromast due to morpholino knockdown of target genes (SLC25A12, TRPC2); format: in vivo; conditions: for Ratio of staining intensity (KD/control): juveniles Day 7
Description: In order to knockdown a specific gene, a mixed solution containing a morpholino antisense oligonucleotide (MO) was prepared. MO was synthesized by using GeneTools, LLC (Philomath, Oreg.). A morpholino antisense oligonucleotide (atgMO) designed so that the translation from a start codon to a protein would be inhibited was dissolved in distilled water to prepare a MO mixed solution having the following composition.
A fertilized embryo within 1 hour after fertilization (before a second cleavage period) of Zebrafish was microinjected with the MO mixed solution. A capillary made of glass (inner diameter: 0.6 mm) having a sharp extremity obtained by extending and cutting a glass tube with a PC-10 puller (manufactured by Narishige Co., Ltd.) and grinding the cross section with a EG-400 grinder (manufactured by Narishige Co., Ltd.) was used for the microinjection. Feeding water and the fertilized embryo were placed into a 10-cm dish in which 1% agarose had been bedded, and the microinjection was performed under a stereoscopic microscope. During injection, one of a manual injector IM-9A (manufactured by Narishige Co., Ltd.) and an electrical microinjector IM-30 (manufactured by Narishige Co., Ltd.) was connected to the capillary made of glass, to thereby perform infusion with pressure. The infusion amount of MO was set to 1 to 10 ng per fertilized embryo.
Because the MO mixed solution is supplemented with a dye (0.005% phenol red), the success or failure of the infusion of the MO mixed solution may be confirmed with the naked eye. Further, because the MO mixed solution is supplemented with a fluorescent protein expression vector (EGFP), on Day 3 after infusion, the success or failure of the microinjection can be confirmed after the fertilized embryo has hatched (a sample in which a signal derived from the fluorescent protein was observed also retains MO in Zebrafish).
Juveniles (embryos on Day 7 after fertilization) of Zebrafish were stained in the same manner as that in Example 1, and a change in staining condition of the hair cell was measured.
The compound (54) was selected as the probe for a hair cell and compared with FM1-43. Further, SLC25A12 and TRPC2 were selected as target genes. The staining intensity of a juvenile neuromast having unknockdown genes was used as a control, and compared with the staining intensity of a juvenile neuromast in which each of the target genes has been knockdown by representing a fluorescence image obtained with a stereoscopic microscope in numerical values.

[3] = test system: hair cell (neuromast) of Zebrafish; assay: Staining of hair cell (neuromast) of Zebrafish juveniles with probe, fluorescence stereomicroscope image visually evaluated; format: in vivo; design: Fluorescence intensity: key to the marks not given beside the values; conditions: dye concentration 1 μg/mL; for Fluorescence intensity / Staining pattern: 1 hour, Zebrafish juveniles Day 7 after fertilization; for Pattern of the neuromast stained (FIGS. 1 to 3): Zebrafish juveniles, in words
Description: A staining compound (1) was dissolved in DMSO to prepare a stock solution at a concentration of 1 mg/mL. The stock solution was diluted with distilled water to prepare a hair cell staining solution 1 having a dye concentration of 1 μg/mL. Further, Egg Water was prepared by dissolving artificial seawater SEALIFE (manufactured by Marinetech Co., Ltd.) in distilled water at a concentration of 60 mg/L. Five juveniles (embryos on Day 7 after fertilization) of Zebrafish were placed into any one of wells of a 24-well multiwell plate together with feeding water. The feeding water was discharged and 1 mL of the hair cell staining solution 1 was added. After the whole had been left to stand for 1 hour, the hair cell staining solution 1 in the well was discharged and replaced by 1 mL of fresh Egg Water. In addition, such an operation that Egg Water was discharged and replaced by 1 mL of fresh Egg Water was repeated twice. One of the juveniles was taken out from the well onto a dish, the motion of the juvenile was restricted by addition of methylcellulose, and a fluorescence image was captured with a fluorescence stereomicroscope. MZ16FA manufactured by Leica Microsystems K.K. was used as a stereoscopic microscope.
An image pickup unit (a digital camera DP72 for a microscope manufactured by Olympus Corporation) of a fluorescence stereomicroscope was remodeled by removing an IR cut filter so as to capture a fluorescence image in a near-infrared wavelength region.

[4] = test system: neuromast (hair cell) of Zebrafish; assay: Staining intensity of neuromast at different concentrations of staining agent (fluorescence intensity per unit intake time); format: in vivo; conditions: 10, 30 and 100 ng/mL staining solutions, intensity/msec
Description: The compounds (43), (54), and (65) were selected as probes for a hair cell, and compared with FM1-43. Three kinds of staining solutions containing those staining agents were prepared at concentrations of 10 ng/mL, 30 ng/mL, and 100 ng/mL. Juveniles of (embryos on Day 7 after fertilization) of Zebrafish were stained in the same manner as that in Example 1. When a fluorescence image is acquired with a fluorescence stereomicroscope, the fluorescence intensity per unit intake time (intensity/msec) was calculated by changing an intake time (exposure time) and dividing the fluorescence intensity (Relative Fluorescence Unit, RFU) of a neuromast of the obtained fluorescence image by the intake time.

SMILES	Excitation wavelength λex [1]	Fluorescence emission wavelength λem [1]	Fluorescence intensity [3]	other results
CCCCN(CCCC)c1ccc(/C=C/c2cc[n+](CCC[N+](CC)(CC)CC)cc2)cc1.[Br-].[Br-] [FM1-43, reference compound]	503 nm	627 nm	+++	Increase of staining properties by knockdown of SLC25A12 and TRPC2 genes ([2]; each of SLC25A12 and TRPC2 knockdown): about 30%; Ratio of staining intensity (KD/control) ([2]; target gene SLC25A12 knockdown): 1.36; Ratio of staining intensity (KD/control) ([2]; target gene TRPC2 knockdown): 1.35
O=S(=O)(O)CCN1/C(=C\C=C\c2oc3ccc(-c4ccccc4)cc3[n+]2CCS(=O)(=O)O)Oc2ccc(-c3ccccc3)cc21 [Staining compound 25]	–	–	–	Pattern of the neuromast stained (FIGS. 1 to 3) [3]: a portion with a smaller neuromast is selectively stained
CN1/C(=C\C=C\C2=[N+](C)c3ccccc3C2(C)C)C(C)(C)c2ccccc21 [Staining compound 43]	–	–	–	Staining intensity of the hair cell compared with FM1-43 (FIG. 4) [4]: higher
CCN1C=C/C(=C/C=C/c2oc3ccccc3[n+]2CC)c2ccccc21 [Staining compound 50]	–	–	–	Pattern of the neuromast stained (FIGS. 1 to 3) [3]: a portion with a bigger neuromast is selectively stained
COc1ccc(N2c3ccc(/C=C/C4=[N+](C)c5ccccc5C4(C)C)cc3C3CCCC32)cc1 (stereo not shown) [Staining compound 53]	–	–	–	Pattern of the neuromast stained (FIGS. 1 to 3) [3]: both a portion with a bigger neuromast and a portion with a smaller neuromast are simultaneously stained
O=C(O)C[n+]1c(/C=C/c2ccc3c(c2)C2CCCC2N3c2ccc(C=C(c3ccccc3)c3ccccc3)cc2)oc2ccccc21 (stereo not shown) [compound 1]	570 nm	657 nm	+++	–
COc1ccc2cc(N3c4ccc(/C=C/c5sc6ccccc6[n+]5CC(=O)O)cc4C4CCCC43)ccc2c1 (stereo not shown) [compound 4]	401 nm	516 nm	+++	–
O=C(O)C[n+]1c(/C=C/c2ccc3c(c2)C2CCCC2N3c2ccccc2)sc2ccccc21 (stereo not shown) [compound 6]	545 nm	636 nm	+++	–
COc1ccc(N2c3ccc(/C=C/c4sc5ccccc5[n+]4CC(=O)O)cc3C3CCCC32)cc1 (stereo not shown) [compound 8]	560 nm	677 nm	+++	–
O=C(O)C[n+]1c(/C=C/c2ccc3c(c2)C2CCCC2N3Cc2ccccc2)sc2ccccc21 (stereo not shown) [compound 15]	566 nm	611 nm	+++	–
CCC(=C\c1oc2ccc(-c3ccccc3)cc2[n+]1CC)/C=C1/Oc2ccc(-c3ccccc3)cc2N1CC [compound 16]	459 nm	564 nm	+++	Staining pattern [3]: S
O=S(=O)(O)CCN1/C(=C\C=C\c2oc3ccc(-c4ccccc4)cc3[n+]2CCS(=O)(=O)O)Oc2ccc(-c3ccccc3)cc21 [compound 25]	470 nm	558 nm	+++	Staining pattern [3]: S
CC(=C\c1oc2ccccc2[n+]1CCC(=O)O)/C=C1/Oc2ccccc2N1CCC(=O)O [compound 28]	429 nm	503 nm	+++	–
CCC(=C\c1sc2ccccc2[n+]1CC)/C=C1/Sc2ccccc2N1CC [compound 39]	563 nm	569 nm	+++	–
CCC(=C\c1sc2c3ccccc3ccc2[n+]1CC)/C=C1/Sc2c(ccc3ccccc23)N1CC [compound 40]	344 nm	381 nm	+++	–
CN1/C(=C\C=C\C2=[N+](C)c3ccccc3C2(C)C)C(C)(C)c2ccccc21 [compound 43]	473 nm	564 nm	+++	–
CCN1/C(=C\C(C)=C\c2sc3ccccc3[n+]2CC)Sc2ccccc21 [compound 45]	560 nm	628 nm	+++	–
CCN1/C(=C\C(C)=C\c2sc3c4ccccc4ccc3[n+]2CC)Sc2c1ccc1ccccc21 [compound 47]	354 nm	469 nm	+++	–
CCN1C=C/C(=C/C=C/c2oc3ccccc3[n+]2CC)c2ccccc21 [compound 50]	571 nm	620 nm	+++	–
CC1(C)C(/C=C/c2ccc3c(c2)C2CCCC2N3c2ccc(C=C(c3ccccc3)c3ccccc3)cc2)=[N+](CCC(=O)O)c2ccccc21 (stereo not shown) [compound 51]	611 nm	720 nm	+++	Staining pattern [3]: S
COc1ccc(N2c3ccc(/C=C/C4=[N+](C)c5ccccc5C4(C)C)cc3C3CCCC32)cc1 (stereo not shown) [compound 53]	614 nm	669 nm	+++	–
CC/N=c1\cc2oc3cc(NCC)c(C)cc3c(-c3ccccc3C(=O)OCC)c-2cc1C [compound 54]	528 nm	550 nm	+++	–
CCCCNS(=O)(=O)c1ccc(-c2c3ccc(=[N+](CC)CC)cc-3oc3cc(N(CC)CC)ccc23)c(S(=O)(=O)O)c1.[Na+] [compound 57]	570 nm	589 nm	+++	–
O=S(=O)(O)c1ccccc1-c1c2cc/c(=N/CCO)cc-2oc2cc(NCCO)ccc12 [compound 58]	480 nm	509 nm	+++	–
CCC[N+](CCC)=c1ccc2c(-c3ccccc3S(=O)(=O)O)c3ccc(Nc4c(C)cccc4C)cc3oc-2c1.[Na+] [compound 60]	509 nm	578 nm	+++	–
CCCC/N=c1/ccc2c(-c3ccccc3S(=O)(=O)O)c3ccc(NCCCC)cc3oc-2c1 [compound 63]	490 nm	560 nm	+++	–
CCN1/C(=C/C=C/C=C/C=C/C2=[N+](CC)c3ccccc3C23CCCCC3)C2(CCCCC2)c2ccccc21 [compound 67]	750 nm	780 nm	+++	–
CN1/C(=C/C=C/C=C/C=C/C2=[N+](C)c3ccccc3C2(C)C)C(C)(C)c2ccccc21 [compound 68]	730 nm	760 nm	+++	–
CN1\C(=C/C=C/C=C/C2=[N+](C)c3ccc4ccccc4c3C2(C)C)C(C)(C)c2c1ccc1ccccc21 [compound 69]	670 nm	700 nm	+++	–
CCN1C=C/C(=C\C=c2\s/c(=C/c3sc4ccccc4[n+]3CC)n(CC)c2=O)c2ccccc21 [compound 70]	660 nm	690 nm	+++	–
